From patent publication US20230416239A1, “COMPOUNDS AND METHODS FOR TREATING A CYTOKINE-MEDIATED DISEASE” (CONSERVATOIRE NATIONAL DES ARTS ET MÉTIERS, priority 2020, published 2023)

How the values were obtained:
TNFα = TNFα (Homo sapiens, UniProt P01375); assay: Immunoassay binding test, TNFa; conditions: compounds 100 to 0.78 μM; TNFα 10 ng/ml, receptor 100 ng/ml; read-out: BINDING TNF IC50
Outline: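 ELISA-type binding test: receptor-coated plates blocked with 2% BSA, then cytokine (six-point dilution series) preincubated 2 h at 37 °C and bound overnight at 4 °C. Detection used biotinylated anti-cytokine antibody and avidin-HRP, read as OD at 450 nm. For IL-6, IL-6Ra was present at 200 ng/ml final.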

TNFa/TNFRI interaction = TNFa/TNFRI interaction (Homo sapiens, UniProt P01375); assay: TNFa/TNFRI interaction displacement test; type: binding; conditions: for Displacement (%): compounds at 50 μM, human TNFRI 100 ng/ml; for Displacement EC50 TNFa in presence of compound: Difference: Compound EC50 minus SPD304 EC50;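 as to Displacement EC50 TNFa in presence of compound: Difference: SPD304 reference at 20 µM final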
Outline: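 Plates coated overnight at 4° C with human TNFRI (100 ng/ml) and blocked with 2% BSA, then test mixtures were incubated overnight at 4° C. Bound cytokine detected with biotinylated anti-cytokine antibody (2 h, 37° C) and avidin-HRP, read as OD at 450 nm.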

IL-4 = target: T1, IL-4 (Homo sapiens, UniProt P05112); assay: Immunoassay binding test, IL-4; conditions: for IC50: IL-4 400 ng/ml, receptor 100 ng/ml, read-out: BINDING IL4 IC50
T1 sequence (P05112 25-153): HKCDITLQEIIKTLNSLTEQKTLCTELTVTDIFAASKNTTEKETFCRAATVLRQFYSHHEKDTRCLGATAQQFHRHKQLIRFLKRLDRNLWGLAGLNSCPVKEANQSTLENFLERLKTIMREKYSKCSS
Outline: (§1)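 Detection used OD at 450 nm after biotinylated anti-cytokine antibody and avidin-HRP were applied to receptor-coated wells. Those wells had received, overnight at 4 °C, cytokine preincubated 2 h at 37 °C with compound at final 100 to 0.78 μM. IL-6 mixtures further contained IL-6Ra at 200 ng/ml final.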

IL-13 = IL-13 (Homo sapiens, UniProt P35225); assay: Immunoassay binding test, IL-13; conditions: for IC50: IL-13 400 ng/ml, receptor 100 ng/ml, read-out: BINDING IL13 IC50
Outline: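 Receptor-coated plates; compounds (100 to 0.78 μM final) preincubated 2 h at 37° C with fixed cytokine, then bound to receptor overnight at 4° C. Bound cytokine detected with biotinylated anti-cytokine antibody and avidin-HRP, OD 450 nm.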

IL-6 = IL-6 (Homo sapiens, UniProt P05231); assay: Immunoassay binding test, IL-6 (gp130 receptor, IL-6Ra present); conditions: IL-6Ra 200 ng/ml
Outline: as §1

Sequence of IL-13 (P35225 25-146, species assumed): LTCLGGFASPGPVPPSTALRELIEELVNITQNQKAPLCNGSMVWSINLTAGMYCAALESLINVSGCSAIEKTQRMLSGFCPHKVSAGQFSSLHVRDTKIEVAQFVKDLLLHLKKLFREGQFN
Sequence of TNFα (P01375 77-233 limits assumed, species assumed): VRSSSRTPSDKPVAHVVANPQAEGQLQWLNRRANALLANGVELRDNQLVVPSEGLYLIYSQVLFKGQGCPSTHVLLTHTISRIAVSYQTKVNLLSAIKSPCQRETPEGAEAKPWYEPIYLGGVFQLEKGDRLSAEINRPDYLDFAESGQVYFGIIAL
Sequence of TNFa/TNFRI interaction (P01375 77-233 limits assumed): as the sequence (P01375 77-233 limits assumed, species assumed) above
Sequence of IL-6 (P05231 30-212, species assumed): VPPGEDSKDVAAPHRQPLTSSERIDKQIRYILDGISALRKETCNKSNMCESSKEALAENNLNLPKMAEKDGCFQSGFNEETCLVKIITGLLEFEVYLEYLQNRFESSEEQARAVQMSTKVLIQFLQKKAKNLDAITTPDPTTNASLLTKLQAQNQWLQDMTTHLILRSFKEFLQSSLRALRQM

Row | Structure (SMILES) | IC50 (TNFα) [µM] | Displacement (%) (TNFa/TNFRI interaction) | BINDING IL4 % Neutra at 100 μM (IL-4) [%] | IC50 (IL-4) [µM] | BINDING IL13 % Neutra at 100 μM (IL-13) [%] | IC50 (IL-13) [µM] | BINDING IL6 % Neutra at 100 μM (IL-6) [%] | Displacement EC50 TNFa in presence of compound: Difference (TNFa/TNFRI interaction) [ng/mL]
1 | CN(CCCN(Cc1ccncc1)Cc1cn(S(=O)(=O)c2ccccc2)c2ccccc12)C1CCCCC1 [Compound 11] | 4.4 | 215 | 97.6 | 6.2 | 90.2 | > 50 | −3 | –
2 | Fc1cc(CN(Cc2cn(-c3cccc(C(F)(F)F)c3)c3ccccc23)CC2CCCN(C3CCCCC3)C2)ccn1 (stereo not drawn) [Compound 20] | 19.7 | 88 | 99.5 | 4.8 | 97.5 | 6.2 | 18.5 | –
3 | O=S(=O)(c1ccccc1)n1cc(CN(CCCCNC2CCCCC2)Cc2cccnc2)c2ccccc21 [Compound 15] | 8.1 | 167 | 99 | 6.3 | 94.8 | > 50 | 11.5 | 5.1
4 | NCCN(Cc1cccnc1)Cc1cn(S(=O)(=O)c2ccccc2)c2ccccc12 [Compound 59] | 35.8 | 78 | 89.4 | 43.9 | 59.3 | > 50 | 0 | –
5 | O=S(=O)(c1ccccc1)n1cc(CN(CCCCNC2CCC2)Cc2cccnc2F)c2ccccc21 [Compound 69, N′-cyclobutyl-N^4-((2-fluoropyridin-3-yl)methyl)-N^4-((1-(phenylsulfonyl)-1H-indol-3-yl)methyl)butane-1,4-diamine] | 12.1 | 121 | 93.6 | 5.6 | 79.7 | > 50 | 0 | –
6 | FC(F)(F)c1cccc(-n2cc(CN(CCCCNC3CCCCC3)Cc3ccncc3)c3ccccc32)c1 [Compound 22] | 16.9 | 120 | 98.4 | 4.1 | 95.2 | > 50 | -1.3 | –
7 | CN(CCCCCN(Cc1cccnc1)Cc1cn(-c2cccc(C(F)(F)F)c2)c2ccccc12)C1CCCCC1 [Compound 40] | 19.9 | 157 | 96.4 | 2.7 | 94.2 | 11.2 | 16.4 | 4.2
8 | CN(C)CCCCCN(Cc1cccc(F)n1)Cc1cn(S(=O)(=O)c2ccccc2)c2ccccc12 [Compound 90] | 15.5 | 137 | 94.0 | 5.2 | 69.7 | > 50 | 0 | –
9 | CN(CCCCN(Cc1cccnc1F)Cc1cn(S(=O)(=O)c2ccccc2)c2ccccc12)C1CCC1 [Compound 70, N′-cyclobutyl-N^4-((2-fluoropyridin-3-yl)methyl)-N′-methyl-N^4-((1-(phenylsulfonyl)-1H-indol-3-yl)methyl)butane-1,4-diamine] | 11.5 | 126 | 92.4 | 13.5 | 69.6 | > 100 | 1 | –
10 | FC(F)(F)c1cccc(-n2cc(CN(CCCCCNC3CCCCC3)Cc3ccncc3)c3ccccc32)c1 [Compound 37] | 19.1 | 123 | 96.3 | 4 | 96.4 | 7.4 | 20.4 | –
11 | CN1CCN(S(=O)(=O)n2cc(CN(CCCCN(C)C3CCCCC3)Cc3cccnc3F)c3ccccc32)CC1 [Compound 92] | 8.4 | 117 | 92.3 | 7.7 | 72.0 | > 50 | 2 | –
12 | O=C(NCCCCN(Cc1cccnc1F)Cc1cn(S(=O)(=O)c2ccccc2)c2ccccc12)N1CCOCC1 [Compound 84] | 21.2 | 111 | 0 | – | 0 | – | 3 | –
13 | O=S(=O)(c1ccccc1)n1cc(CN(CCCCNC2CCCCC2)Cc2ccncc2)c2ccccc21 [Compound 16] | 5.4 | 165 | 99.5 | 4.8 | 88.2 | > 50 | 15.7 | 4.7
14 | CN(CCN(Cc1ccncc1)Cc1cn(-c2cccc(C(F)(F)F)c2)c2ccccc12)C1CCCCC1 [Compound 31] | 13.4 | 120 | 96 | 5.7 | 81 | > 50 | 1.7 | –
15 | CN(CCCCN(Cc1cccnc1F)Cc1cn(S(=O)(=O)c2ccccc2)c2ccccc12)C1CCCCC1 [Compound 49, N1-cyclohexyl-N4-((2-fluoropyridin-3-yl)methyl)-N1-methyl-N4-((1-(phenylsulfonyl)-1H-indol-3-yl)methyl)butane-1,4-diamine] | 8.2 | 127 | 89.5 | 5.6 | 88.8 | 23.9 | 0 | –
16 | CN(CCN(Cc1cccnc1)Cc1cn(S(=O)(=O)c2ccccc2)c2ccccc12)C1CCCCC1 [Compound 27] | 13.8 | 121 | 96.3 | 7.8 | 53.9 | > 50 | −12 | –
17 | CCCCN(CCOCCN(Cc1cccnc1F)Cc1cn(S(=O)(=O)c2ccccc2)c2ccccc12)C1CCCCC1 [Compound 99, N-butyl-N-(2-(2-(((2-fluoropyridin-3-yl)methyl)((1-(phenylsulfonyl)-1H-indol-3-yl)methyl)amino)ethoxy)ethyl)cyclohexanamine] | 8.2 | 173 | 87.4 | 4.4 | 91.8 | > 50 | 0 | –
